The values that follow are results of earlier work, collected in patent EP4585059A1, “EFFERVESCENT POUCHED PRODUCT” (Nicoventures Trading Limited, priority 2024, dated 2025).

The conditions of the first series: Values obtained from PubChem or calculated.
On to `CC(C)[C@@H]1CC[C@@H](C)C[C@H]1OC(=O)CCC(=O)O` [monomenthyl succinate], for which the “log(P)*” value was 3.

Turning to ethyl benzoic acid, the “log(P)*” value is 2.9.

As to isopropyl benzoic acid, the “log(P)*” value is 3.5.

For a further series the following is noted: water / aqueous environment (e.g., saliva).
On to `CC(/C=C/C=C(C)/C=C/C(=O)O)=C\C=C\C=C(C)\C=C\C=C(C)\C=C\C(=O)O` (stereo in doubt) [norbixin, (2E,4E,6E,8E,10E,12E,14E,16E,18E)-4,8,13,17-tetramethylicosa-2,4,6,8,10,12,14,16,18-nonaenedioic acid], for which the solubility in water entry is reported as “water-soluble”.

`C=C(C)[C@@H]1CCC(C)=C[C@H]1c1c(O)cc(CCCCC)cc1O` [CBD, cannabidiol]: the solubility in water result was “insoluble”.

For the compound `COC(=O)/C=C/C(C)=C\C=C\C(C)=C\C=C\C=C(C)\C=C\C=C(C)\C=C\C(=O)O` [bixin, (2E,4E,6E,8E,10E,12E,14E,16Z,18E)-20-methoxy-4,8,13,17-tetramethyl-20-oxoicosa-2,4,6,8,10,12,14,16,18-nonaenoic acid], the solubility in water entry is “insoluble in water”.
